# Test results reported in patent US7199219B1, “Polypeptides derived from vitamin D nuclear receptor, and their uses in particular for screening vitamin D analogues” (Centre National de la Recherche Scientifique, priority 1999, dated 2007).
# T1: VDR (Bos taurus, UniProt Q28037)
# T1 sequence (Q28037 1-426): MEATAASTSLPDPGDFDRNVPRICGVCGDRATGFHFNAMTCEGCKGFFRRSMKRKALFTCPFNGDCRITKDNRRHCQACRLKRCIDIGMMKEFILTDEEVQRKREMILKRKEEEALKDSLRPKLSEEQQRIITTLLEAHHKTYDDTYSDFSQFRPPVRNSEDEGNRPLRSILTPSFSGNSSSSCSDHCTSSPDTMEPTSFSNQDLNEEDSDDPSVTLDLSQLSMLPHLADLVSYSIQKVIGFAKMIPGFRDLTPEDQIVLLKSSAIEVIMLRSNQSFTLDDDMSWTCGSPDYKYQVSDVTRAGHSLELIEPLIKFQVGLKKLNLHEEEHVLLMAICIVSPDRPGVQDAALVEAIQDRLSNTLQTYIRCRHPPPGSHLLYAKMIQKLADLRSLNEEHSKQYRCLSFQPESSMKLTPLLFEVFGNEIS
# B1: mutant VDR: polypeptide derived from human VDR in which residues 1–117 and 165–215 are suppressed (protein)
# chain: DSLRPKLSEEQQRIIAILLDAHHKTYDPTYSDFCQFRPPVRVNDGGGSVTLELSQLSMLPHLADLVSYSIQKVIGFAKMIPGFRDLTSEDQIVLLKSSAIEVIMLRSNESFTMDDMSWTCGNQDYKYRVSDVTKAGHSLELIEPLIKFQVGLKKLNLHEEEHVLLMAICIVSPDRPGVQDAALIEAIQDRLSNTLQTYIRCRHPPPGSHLLYAKMIQKLADLRSLNEEHSKQYRCLSFQPECSMKLTPLVLEVFGNEIS
# modifications: Description of the artificial sequence polypeptide derived from the nuclear receptor of the human vitamin D
# notes: polypeptide derived from human VDR in which residues 1–117 and 165–215 are suppressed
# Assays:
# VDR = target: T1, VDR; settings: versus 1,25(OH)2 D3; cited from earlier work
# [1] = tested on: 17 m5-TATA-CAT reporter gene responding to GAL4; assay: GAL4-LBD chimera transactivation, CAT reporter in transfected Cos cells; assay type: cell-based; settings: Gal4 (1–147) fusion, Cos cells, 1,25(OH)2 D3 10^−7M
# Source text: b) CAT activities of the wild-type hVDR and of the mutant hVDR; these activities are indicated on the ordinate as a percentage; column 1 corresponds to the CAT activity measured in the absence of vitamin D (VD), of wild-type (wild-type) hVDR and of mutant (truncated) hVDR; column 2 corresponds to CAT activity measured in the presence of VD and in the absence of wild-type hVDR and of mutant hVDR; column 3 corresponds to CAT activity measured in the presence of wild-type hVDR and in the absence of VD and of mutant hVDR; column 4 corresponds to CAT activity measured in the presence of VD and of wild-type hVDR and in the absence of mutant hVDR; column 5 corresponds to CAT activity measured in the presence of mutant hVDR, and in the absence of VD and of wild-type hVDR; column 6 corresponds to CAT activity measured in the presence of mutant hVDR and of VD and in the absence of wild-type hVDR.
# No significant change was observed between the dissociation constants of the wild-type and mutant VDRs was observed, the values being similar to that described previously for the whole receptor (Bouillon et al., 1995). […] The chimeric proteins were expressed by transfection into Cos cells, and the transactivation was measured with an appropriate reporter responding to GAL4.
Molecule,binding affinity relative to the natural ligand (VDR),transactivation properties (CAT activity) compared with wild-type LBD [1]
"C=C1C(=CC=C2CCCC3(C)C2CCC3C(C)CCCC(C)(C)O)CC(O)C(C)C1O (stereo not drawn) [2 α-methyl 1,25(OH)2 D3]",4 times,
B1,,comparable transactivation properties
